# From patent US20200179511A1, “BCMA-TARGETING AGENT, AND COMBINATION THERAPY WITH A GAMMA SECRETASE INHIBITOR” (Novartis AG, priority 2017, published 2020)
# Columns and labels:
# [1] = tested on: BCMA cell surface expression; assay: BCMA cell surface expression by flow cytometry (PE conjugated BCMA antibody) with or without GSI treatment (Example 1, FIG. 2); format: cell-based, human; conditions: BCMA-expressing multiple myeloma cell lines
# Description: BCMA expressing cell lines were also treated overnight with and without GSIs. Cell culture supernatants were collected and quantified for levels of soluble BCMA by ELISA (R&D Systems, # DY193). Additionally, remaining cells were pelleted, stained with a PE conjugated BCMA antibody (clone 19F2, Biolegend #357504) and analyzed by flow cytometry for BCMA cell surface expression levels.
# BCMA cell surface expression level was determined by flow cytometry on cell lines with or without GSI treatment.
# shed/soluble BCMA = assay: GSI inhibition of shed/soluble BCMA (sBCMA), ELISA of supernatants, 72 hours, serial dilutions (Example 2, FIG. 8, Table 3); format: cell-based, human; conditions: inhibition of BCMA shedding / enhancement of membrane BCMA
# Description: Target human cancer cell lines expressing various levels of human BCMA (NCI-H929^[High], MM1S^[Med], U266B1^[low]) were all transduced to constitutively express luciferase, which is used to measure cell viability/survival with the BrightGlo reagent (Promega E2650). Target cells were plated 30,000 cells per well in a 96 well plate (Costar 3904) together with serial dilutions of a panel of gamma secretase inhibitors (Table 2). The plate was incubated at 37° C./5% CO2 for 72 hours, followed by measurements of cell viability (BrightGlo, Promega # E2650) according to vendor protocol. In a replicate set of assay plates, cell culture supernatants were collected by centrifugation and quantified for levels of soluble BCMA by ELISA (R&D Systems, DY193), and the remaining cells were stained with a PE conjugated BCMA antibody (clone 19F2, Biolegend 357504) and analyzed by flow cytometry for BCMA cell surface expression levels.
# Raw OD450 values from the BCMA ELISA were plotted together with the mean fluorescent intensity values from flow cytometry analysis of cells stained with anti-BCMA antibody, and are shown for MM1S cells treated with the various GSIs in FIG. 8. Table 3 summarizes the EC50 results of all the GSIs on the three BCMA-expressing cell lines.
Compound,cell surface expression of BCMA [1],efficacious concentrations among the panel of GSIs (rank of potency) (shed/soluble BCMA)
C[C@H](NC(=O)Cc1cc(F)cc(F)c1)C(=O)N[C@H](C(=O)OC(C)(C)C)c1ccccc1 [DAPT],strongly enhances,–
C[C@H](c1ccc(F)cc1CCCC(=O)O)N(c1cc(F)ccc1F)S(=O)(=O)c1ccc(Cl)cc1 [BMS-299897],–,least
"C[C@H](NC(=O)[C@@H](O)c1cc(F)cc(F)c1)C(=O)N[C@@H]1C(=O)N(C)c2ccccc2-c2ccccc21 [LY-411575, (S)-2-((S)-2-(3,5-difluorophenyl)-2-hydroxyacetamido)-N—((S)-5-methyl-6-oxo-6,7-dihydro-5H-dibenzo[b,d]azepin-7-yl)propanamide]",strongly enhances,most potent
